The text below walks through data of patent US20250026721A1, “COMPOUNDS AND METHODS FOR MODULATING RAS-PI3K” (Vividion Therapeutics, Inc., priority 2023, published 2025).

The structures appear in SMILES notation.

For assay [1], the target named is T1, PIK3CA (Homo sapiens, UniProt P42336).
T1 construct: endogenous in cells; host or cells: Jurkat cell lysate
Description: In vitro ELISA target engagement assay for PIK3CA in Jurkat cellular lysate (competition with PIK3CA Biotin Probe). The class given is binding. Conditions: 1 hour at rt, then 500 nM PIK3CA Biotin Probe, read-out: Elisa Target Engagement Assay (TE50). In a few lines:
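Jurkat lysate from sonicated frozen cells was preincubated 1 h at rt with serially diluted compound up to 200 μM, then labelled 1 h at rt with PIK3CA biotin probe at 500 nM final. Probe-bound PIK3CA was captured on antibody-coated plates and detected with Neutravidin-HRP luminescence; TE50 derived from the dose response.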
Background: In an ELISA, binding on a coated surface is turned into a signal by an enzyme label.

Assay [2] deals with pAKT(S473) in H358 cell line. The experiment in a line: In vitro Phospho-AKT(S473) HTRF analysis in H358 cells. Conditions: Homo sapiens, NCI-H358, 0.5 h; for IC50: H358 cells, 30 minutes at 37° C.; for Emax: read-out: H358 pAKT Imax % control. The class given is cell-based. On the procedure:
Example 5. In Vitro Phosgho-AKT(S473) Analysis
Functional activity of the compounds to inhibit pAKT were assessed in FaDu or H358 cell lines as indicated below.
• Complete Media • FBS, Corning catalog #35-010-CV • Anti-Anti, Gibco catalog #15240-062 • 96 well plate, Corning catalog #3610 • TrypLE, Gibco catalog #12604013 • Phospho-AKT(S473) HTRF kit, Cisbio catalog #64AKSPET
Cells were detached from the tissue culture flask with TrypLE. The cells were pelleted at 500×g for 5 min, TrypLe was removed and then resuspended in the necessary volume of media+1% FBS to give the appropriate cell density (17,500 cells/mL for FaDu; 20,000 cells/mL for H358). 100 μL of cell suspension/well was dispensed into the 96-well plate while keeping the outer wells of the plate free of cells and filled with PBS to prevent evaporation of interior wells. The plate was incubated at 37° C. and allowed to adhere overnight. The cells were treated with a dose response of compound and incubated at 37° C. for 30 minutes. The cells were then processed and pAKT(S473) levels were assessed following the specifications of the Cisbio HTRF kit.
A general note: In TR-FRET formats the signal depends on donor and acceptor labels being close together.

In assay [3] the target is T2, PIK3CA_C242 (Homo sapiens, UniProt P42336).
T2 construct: endogenous in cells; host or cells: Jurkat cell lysate
Description: Proteomic TE50 (IA-DTB / TMT mass spectrometry) in Jurkat cell lysate. The class given is binding. Conditions: 1 hour at rt, 7-point dose response. In a few lines:
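Jurkat lysate (500 μg) treated with compound (7-point, 1:5 dilutions) for 1 h at rt, then labelled with 200 μM IA-DTB for 1 h. After digestion and streptavidin enrichment, the C242 peptide was quantified by targeted MS3 TMT. TE50 was derived from reporter-ion S/N dose-response curves.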

Assay [4] has as its system pAKT(S473) in FaDu cell line. Description: In vitro Phospho-AKT(S473) HTRF analysis in FaDu cells. The class given is cell-based. Conditions: Homo sapiens, 0.5 h. Summed up: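 FaDu or H358 cells were plated overnight in medium with 1% FBS, then exposed to a compound dose response for 30 minutes at 37° C. Phospho-AKT(S473) levels were measured by HTRF.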

T1 sequence (P42336 whole entry): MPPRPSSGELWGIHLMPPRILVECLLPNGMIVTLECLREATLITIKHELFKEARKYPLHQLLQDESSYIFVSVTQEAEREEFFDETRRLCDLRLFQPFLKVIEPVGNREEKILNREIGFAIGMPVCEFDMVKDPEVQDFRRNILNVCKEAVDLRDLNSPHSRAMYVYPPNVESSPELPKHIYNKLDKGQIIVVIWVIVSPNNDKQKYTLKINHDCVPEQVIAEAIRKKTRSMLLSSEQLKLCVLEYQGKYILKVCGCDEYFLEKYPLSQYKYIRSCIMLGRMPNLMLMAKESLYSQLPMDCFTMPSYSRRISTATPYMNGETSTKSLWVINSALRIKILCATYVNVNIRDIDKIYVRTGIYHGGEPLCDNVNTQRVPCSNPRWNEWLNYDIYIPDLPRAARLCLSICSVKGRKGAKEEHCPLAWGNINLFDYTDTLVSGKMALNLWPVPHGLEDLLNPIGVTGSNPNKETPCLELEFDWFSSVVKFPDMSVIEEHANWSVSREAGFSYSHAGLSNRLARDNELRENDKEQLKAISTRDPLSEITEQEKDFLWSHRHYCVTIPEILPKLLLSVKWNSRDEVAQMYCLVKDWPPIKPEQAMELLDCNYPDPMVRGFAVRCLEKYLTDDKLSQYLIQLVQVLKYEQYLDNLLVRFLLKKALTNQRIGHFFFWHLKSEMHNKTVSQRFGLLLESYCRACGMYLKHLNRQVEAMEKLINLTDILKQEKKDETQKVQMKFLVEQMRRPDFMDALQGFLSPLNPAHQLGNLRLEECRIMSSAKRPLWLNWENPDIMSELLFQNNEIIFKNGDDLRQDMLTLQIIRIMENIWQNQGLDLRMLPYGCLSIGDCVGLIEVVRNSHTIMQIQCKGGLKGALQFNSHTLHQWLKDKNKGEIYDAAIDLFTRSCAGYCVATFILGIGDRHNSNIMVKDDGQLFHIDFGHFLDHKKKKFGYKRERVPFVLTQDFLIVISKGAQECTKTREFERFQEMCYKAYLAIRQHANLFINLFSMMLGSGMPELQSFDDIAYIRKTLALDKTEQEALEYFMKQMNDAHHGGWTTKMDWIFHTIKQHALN
T1 sequence (P27986 whole entry partner): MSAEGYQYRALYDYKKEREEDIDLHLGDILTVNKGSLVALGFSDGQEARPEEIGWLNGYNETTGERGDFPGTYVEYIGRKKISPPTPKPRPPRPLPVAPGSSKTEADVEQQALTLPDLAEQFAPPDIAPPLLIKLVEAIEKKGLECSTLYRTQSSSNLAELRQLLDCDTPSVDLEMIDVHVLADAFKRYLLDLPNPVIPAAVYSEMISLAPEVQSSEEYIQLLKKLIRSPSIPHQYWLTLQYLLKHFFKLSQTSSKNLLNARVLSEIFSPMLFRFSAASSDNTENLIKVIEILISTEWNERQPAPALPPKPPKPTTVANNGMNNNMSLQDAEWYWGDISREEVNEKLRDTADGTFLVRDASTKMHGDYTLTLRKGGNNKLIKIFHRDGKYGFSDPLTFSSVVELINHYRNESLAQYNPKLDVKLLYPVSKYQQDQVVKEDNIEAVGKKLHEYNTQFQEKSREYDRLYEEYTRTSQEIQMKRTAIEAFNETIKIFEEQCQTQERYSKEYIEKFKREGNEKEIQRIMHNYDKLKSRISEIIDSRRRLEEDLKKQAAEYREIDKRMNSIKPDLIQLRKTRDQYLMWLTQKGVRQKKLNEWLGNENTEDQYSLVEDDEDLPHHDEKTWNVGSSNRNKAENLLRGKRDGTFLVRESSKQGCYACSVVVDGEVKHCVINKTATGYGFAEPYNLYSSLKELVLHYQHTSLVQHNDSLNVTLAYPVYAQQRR
T2 sequence (P42336 whole entry): as the sequence (P42336 whole entry) above
T2 sequence (P27986 whole entry partner): as the sequence (P27986 whole entry partner) above

As to `C[C@H](/C=C\S(C)(=O)=O)NC(=O)[C@@]1(F)CCCN(C(=O)[C@H]2CN(CC(F)(F)F)C[C@H]2c2cccc(F)c2F)CC1` (single isomer, unassigned) [Compound 173, (R)-1-((3*R,4*R)-4-(2,3-difluorophenyl)-1-(2,2,2-trifluoroethyl)pyrrolidine-3-carbonyl)-4-fluoro-N-((R,Z)-4-(methylsulfonyl)but-3-en-2-yl)azepane-4-carboxamide], the IC50 in assay [1] is 0.54 µM. In assay [2], the IC50 amounted to 0.464 µM and the Emax worked out at 85.5%.
In the same order, the values of `C[C@H](/C=C\S(C)(=O)=O)NC(=O)[C@@]1(F)CCCCN(C(=O)[C@H]2CN(CC(F)(F)F)C[C@H]2c2ccccc2Cl)CC1` (single isomer, unassigned) [Compound 272, (*R)-1-((3R,4R)-4-(2-chlorophenyl)-1-(2,2,2-trifluoroethyl)pyrrolidine-3-carbonyl)-4-fluoro-N-((R,Z)-4-(methylsulfonyl)but-3-en-2-yl)azocane-4-carboxamide] are 0.88 µM, 0.694 µM and 89.8%.
For `C[C@H](/C=C\S(C)(=O)=O)NC(=O)[C@@]1(F)CCCN(C(=O)[C@@H]2CN(CC(C)(F)F)C[C@@H]2c2cccc(F)c2Cl)CC1` (single isomer, unassigned) [Compound 222, (R)-1-((3*S,4*S)-4-(2-chloro-3-fluorophenyl)-1-(2,2-difluoropropyl)pyrrolidine-3-carbonyl)-4-fluoro-N-((R,Z)-4-(methylsulfonyl)but-3-en-2-yl)azepane-4-carboxamide], in that order: 0.21 µM, 0.146 µM and 91%.
For `C[C@H](/C=C\S(C)(=O)=O)NC(=O)C1(F)CCN(C(=O)[C@H]2CCC(C)(C)C[C@@H]2c2ccccc2Cl)CC1` (racemic) [Compound 255, 1-((1*S,2*S)-2-(2-chlorophenyl)-4,4-dimethylcyclohexane-1-carbonyl)-4-fluoro-N-((R,Z)-4-(methylsulfonyl)but-3-en-2-yl)piperidine-4-carboxamide], in that order: 0.43 µM, 0.067 µM and 86.7%.
For `C[C@H](/C=C\S(C)(=O)=O)NC(=O)C1(F)CCN(C(=O)[C@H]2CN(CC(F)(F)F)C[C@H]2c2ccccc2Cl)C1` (stereo partly drawn) [Compound 314, 1-((3R,4R)-4-(2-chlorophenyl)-1-(2,2,2-trifluoroethyl)pyrrolidine-3-carbonyl)-3-fluoro-N-((R,Z)-4-(methylsulfonyl)but-3-en-2-yl)pyrrolidine-3-carboxamide], in assay [1], the IC50 turned out to be 1.1 µM. In addition, in assay [2], the IC50 was 0.622 µM and the Emax stood at 100%.
As to `C[C@H](/C=C/S(C)(=O)=O)NC(=O)[C@@]1(F)CCCN(C(=O)[C@H]2CN(CC(F)(F)F)C[C@H]2c2c(F)cccc2Cl)CC1` [Compound 296, (R)-1-((3R,4R)-4-(2-chloro-6-fluorophenyl)-1-(2,2,2-trifluoroethyl)pyrrolidine-3-carbonyl)-4-fluoro-N-((R,E)-4-(methylsulfonyl)but-3-en-2-yl)azepane-4-carboxamide], the IC50 in assay [1] stood at 0.4 µM. Besides, in assay [2], the IC50 worked out at 0.642 µM and the Emax was found to be 69.4%.
For `C[C@H](/C=C\S(C)(=O)=O)NC(=O)[C@@]1(F)CCCN(C(=O)[C@@H]2CN(CC(F)(F)F)C[C@@H]2c2c(F)cc(F)cc2Cl)CC1` (single isomer, unassigned) [Compound 227, (R)-1-((3*S,4*S)-4-(2-chloro-4,6-difluorophenyl)-1-(2,2,2-trifluoroethyl)pyrrolidine-3-carbonyl)-4-fluoro-N-((R,Z)-4-(methylsulfonyl)but-3-en-2-yl)azepane-4-carboxamide], in that order: 0.34 µM, 0.25 µM and 102%.
For `C[C@H](/C=C\S(C)(=O)=O)NC(=O)[C@@]1(F)CCCN(C(=O)[C@H]2CN(CC3(F)CC3)C[C@H]2c2ccccc2Cl)CC1` [Compound 185, (R)-1-((3R,4R)-4-(2-chlorophenyl)-1-((1-fluorocyclopropyl)methyl)pyrrolidine-3-carbonyl)-4-fluoro-N-((R,Z)-4-(methylsulfonyl)but-3-en-2-yl)azepane-4-carboxamide], the IC50 in assay [1] was determined as 0.29 µM; in assay [2] it was 0.123 µM. For the same compound, the Emax in assay [2] is 95.6%.
For `C[C@H](/C=C\S(C)(=O)=O)NC(=O)[C@@]1(F)CCCN(C(=O)[C@H]2CN(CC(C)(F)F)C[C@H]2c2c(F)cccc2Cl)CC1` (single isomer, unassigned) [Compound 183], in that order: 0.078 µM, 0.0566 µM and 93.2%.
For `C[C@H](/C=C\S(C)(=O)=O)NC(=O)[C@@]1(F)CCCN(C(=O)[C@H]2CN(CC3(F)CC3)C[C@H]2c2c(F)cccc2Cl)CC1` (single isomer, unassigned) [Compound 184, (R)-1-((3*R,4*R)-4-(2-chloro-6-fluorophenyl)-1-((1-fluorocyclopropyl)methyl)pyrrolidine-3-carbonyl)-4-fluoro-N-((R,Z)-4-(methylsulfonyl)but-3-en-2-yl)azepane-4-carboxamide], in that order: 0.085 µM, 0.0646 µM and 102%.
For `Cc1ccccc1[C@@H]1CN(CC(F)(F)F)C[C@@H]1C(=O)N1CCC[C@](F)(C(=O)N[C@H](C)/C=C\S(C)(=O)=O)CC1` (single isomer, unassigned) [Compound 224, (R)-4-fluoro-N-((R,Z)-4-(methylsulfonyl)but-3-en-2-yl)-1-((3*R,4*R)-4-(o-tolyl)-1-(2,2,2-trifluoroethyl)pyrrolidine-3-carbonyl) azepane-4-carboxamide], in that order: 0.52 µM, 0.326 µM and 81.2%.
Consider `C[C@H](/C=C\S(C)(=O)=O)NC(=O)[C@@]1(F)CCCN(C(=O)N2CCN(CC(F)(F)F)C[C@H]2c2ccccc2Cl)CC1` (single isomer, unassigned) [Compound 309, (R)-1-((*R)-2-(2-chlorophenyl)-4-(2,2,2-trifluoroethyl)piperazine-1-carbonyl)-4-fluoro-N—((R,Z)-4-(methylsulfonyl)but-3-en-2-yl)azepane-4-carboxamide], for which the figures for the IC50 in assay [1] and in assay [2] were 0.39 µM and 0.276 µM, respectively. Also, in assay [2], the Emax turned out to be 91.8%.
As for `C[C@H](/C=C\S(C)(=O)=O)NC(=O)[C@@]1(F)CCCN(C(=O)[C@H]2CN(CC(F)(F)F)C[C@H]2c2ccccc2F)CC1` (single isomer, unassigned) [Compound 223, (R)-4-fluoro-1-((3*R,4*R)-4-(2-fluorophenyl)-1-(2,2,2-trifluoroethyl)pyrrolidine-3-carbonyl)-N-((R,Z)-4-(methylsulfonyl)but-3-en-2-yl) azepane-4-carboxamide], the IC50 in assay [1] is 0.51 µM; in assay [2] it was 0.346 µM. Besides, in assay [2], the Emax amounted to 87.5%.
In the same order, the values of `C[C@H]1C[C@](F)(C(=O)N[C@@H]2C=CS(=O)(=O)C2)CCN1C(=O)[C@H]1CN(CC(F)(F)F)C[C@H]1c1cccc(F)c1Cl` (single isomer, unassigned) [Compound 175, (2*S,4*S)-1-((3*R,4*R)-4-(2-chloro-3-fluorophenyl)-1-(2,2,2-trifluoroethyl)pyrrolidine-3-carbonyl)-N-((R)-1,1-dioxido-2,3-dihydrothiophen-3-yl)-4-fluoro-2-methylpiperidine-4-carboxamide] are 0.62 µM, 0.151 µM and 75.6%.
As for `C[C@H](/C=C\S(C)(=O)=O)NC(=O)C1(F)CCN(S(=O)(=O)c2ccc(C#N)cc2-c2ccccc2Cl)CC1` [Compound 35, (R,Z)-1-((2′-chloro-5-cyano-[1,1′-biphenyl]-2-yl)sulfonyl)-4-fluoro-N-(4-(methylsulfonyl)but-3-en-2-yl)piperidine-4-carboxamide], the IC50 in assay [1] is 0.165 µM; in assay [3] it was 0.14 µM; in assay [4] (FaDu cells, 30 minutes at 37° C.), 0.33 µM. Besides, the Emax in assay [4] (FaDu, read-out: FaDu pAKT Imax % control) stood at 103%.
